# Source: ChEMBL document CHEMBL1201862, “PubChem BioAssay data set” (2004)
#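 Test compounds were applied to cells in 96-well plates for 48 hours at 5 doses. Abbreviation: GI50, concentration required for 50% inhibition of growth.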 Calls of active or inactive are those of the source. Cut-off read from the data, not from the text of the source: active = GI50 up to about 1.1 µM and inactive = higher.
# Assays:
# Experiment in all cases: inhibition of tumour cell growth, NCI panel, 48 h
# SN12C = test system: SN12C
# Hs-578T = test system: Hs-578T
# UACC-257 = test system: UACC-257
# NCI-H460 = test system: NCI-H460
# U-251 = test system: U-251
# ACHN = test system: ACHN
# IGROV-1 = test system: IGROV-1
# HOP-92 = test system: HOP-92
# COLO 205 = test system: COLO 205
# LOX IMVI = test system: LOX IMVI
# MDA-N = test system: MDA-N
# Malme-3M = test system: Malme-3M
# OVCAR-5 = test system: OVCAR-5
# HT-29 = test system: HT-29
# MDA-MB-231 = test system: MDA-MB-231
# OVCAR-4 = test system: OVCAR-4
# EKVX = test system: EKVX
# TK-10 = test system: TK-10
# HCT-116 = test system: HCT-116
# 786-0 = test system: 786-0
# A549 = test system: A549
# OVCAR-3 = test system: OVCAR-3
# NCI-H522 = test system: NCI-H522
# HCC 2998 = test system: HCC 2998
# NCI/ADR-RES = test system: NCI/ADR-RES
# SK-OV-3 = test system: SK-OV-3
# SNB-75 = test system: SNB-75
# SW-620 = test system: SW-620
# SNB-19 = test system: SNB-19
# K562 = test system: K562
# RPMI-8226 = test system: RPMI-8226
# HL-60 = test system: HL-60
# MDA-MB-435 = test system: MDA-MB-435
# A498 = test system: A498
# HOP-62 = test system: HOP-62
# MCF7 = test system: MCF7
# SF-539 = test system: SF-539
# SK-MEL-5 = test system: SK-MEL-5
# PC-3 = test system: PC-3
# OVCAR-8 = test system: OVCAR-8
# SK-MEL-2 = test system: SK-MEL-2
# NCI-H226 = test system: NCI-H226
# SK-MEL-28 = test system: SK-MEL-28
# MOLT-4 = test system: MOLT-4
# KM12 = test system: KM12
# RXF 393 = test system: RXF 393
# SF-268 = test system: SF-268
# M14 = test system: M14
# UACC-62 = test system: UACC-62
# CAKI-1 = test system: CAKI-1
# CCRF-CEM = test system: CCRF-CEM
# SF-295 = test system: SF-295
# HCT-15 = test system: HCT-15
# BT-549 = test system: BT-549
# SR = test system: SR
# UO-31 = test system: UO-31
# NCI-H23 = test system: NCI-H23
smiles,measurement,setting,value
COc1ccc(-c2c(C#N)c(-c3ccc(C)cc3)n(NS(=O)(=O)c3ccccc3)c(=O)c2C#N)cc1,GI50,SN12C,65.3 µM (inactive)
same,GI50,Hs-578T,33.7 µM (inactive)
same,GI50,UACC-257,> 100 µM (inactive)
same,GI50,NCI-H460,45.8 µM (inactive)
same,GI50,U-251,42.2 µM (inactive)
same,GI50,ACHN,45 µM (inactive)
same,GI50,IGROV-1,35.5 µM (inactive)
same,GI50,HOP-92,38.8 µM (inactive)
same,GI50,COLO 205,> 100 µM (inactive)
same,GI50,LOX IMVI,30.3 µM (inactive)
same,GI50,MDA-N,70.8 µM (inactive)
same,GI50,Malme-3M,> 100 µM (inactive)
same,GI50,OVCAR-5,> 100 µM (inactive)
same,GI50,HT-29,47.5 µM (inactive)
same,GI50,MDA-MB-231,> 100 µM (inactive)
same,GI50,OVCAR-4,37.8 µM (inactive)
same,GI50,EKVX,53.5 µM (inactive)
same,GI50,TK-10,79.8 µM (inactive)
same,GI50,HCT-116,42.6 µM (inactive)
same,GI50,786-0,51.5 µM (inactive)
same,GI50,A549,45.9 µM (inactive)
same,GI50,OVCAR-3,30.9 µM (inactive)
same,GI50,NCI-H522,87.7 µM (inactive)
same,GI50,HCC 2998,45.8 µM (inactive)
same,GI50,NCI/ADR-RES,41.5 µM (inactive)
same,GI50,SK-OV-3,84.3 µM (inactive)
same,GI50,SNB-75,> 100 µM (inactive)
same,GI50,SW-620,46.7 µM (inactive)
same,GI50,SNB-19,58.5 µM (inactive)
same,GI50,K562,60.4 µM (inactive)
same,GI50,RPMI-8226,13.3 µM (inactive)
same,GI50,HL-60,19 µM (inactive)
same,GI50,MDA-MB-435,73.6 µM (inactive)
same,GI50,A498,59 µM (inactive)
same,GI50,HOP-62,51.3 µM (inactive)
same,GI50,MCF7,28.9 µM (inactive)
same,GI50,SF-539,36.6 µM (inactive)
same,GI50,SK-MEL-5,19.5 µM (inactive)
same,GI50,PC-3,35 µM (inactive)
same,GI50,OVCAR-8,58.1 µM (inactive)
same,GI50,SK-MEL-2,50.8 µM (inactive)
same,GI50,NCI-H226,> 100 µM (inactive)
same,GI50,SK-MEL-28,48.1 µM (inactive)
same,GI50,MOLT-4,19 µM (inactive)
same,GI50,KM12,46.3 µM (inactive)
same,GI50,RXF 393,36.2 µM (inactive)
same,GI50,SF-268,80.4 µM (inactive)
same,GI50,M14,48.6 µM (inactive)
same,GI50,UACC-62,38.5 µM (inactive)
same,GI50,CAKI-1,74.1 µM (inactive)
same,GI50,CCRF-CEM,23 µM (inactive)
same,GI50,SF-295,32.7 µM (inactive)
same,GI50,HCT-15,39.3 µM
same,GI50,BT-549,25.2 µM (inactive)
CC(Cn1c2c(c3cc(O)ccc31)CCc1ccc(O)cc1-2)N(C)C (stereo not drawn),GI50,SR,48.2 µM (inactive)
same,GI50,SN12C,29.4 µM (inactive)
same,GI50,UO-31,13.2 µM (inactive)
same,GI50,Hs-578T,17.1 µM (inactive)
same,GI50,UACC-257,19.9 µM (inactive)
same,GI50,NCI-H460,15.1 µM (inactive)
same,GI50,U-251,28.2 µM (inactive)
same,GI50,NCI-H23,19.6 µM (inactive)
same,GI50,ACHN,15.8 µM (inactive)
same,GI50,IGROV-1,12.8 µM (inactive)
same,GI50,LOX IMVI,23.4 µM (inactive)
same,GI50,MDA-N,18.8 µM (inactive)
same,GI50,Malme-3M,14.5 µM (inactive)
same,GI50,OVCAR-5,19.3 µM (inactive)
same,GI50,HT-29,18.2 µM (inactive)
same,GI50,MDA-MB-231,26 µM (inactive)
same,GI50,EKVX,19.8 µM (inactive)
same,GI50,TK-10,18.7 µM (inactive)
same,GI50,HCT-116,19.7 µM (inactive)
same,GI50,786-0,15.5 µM (inactive)
same,GI50,OVCAR-3,15.6 µM (inactive)
same,GI50,NCI/ADR-RES,20.2 µM (inactive)
same,GI50,SK-OV-3,25.2 µM (inactive)
same,GI50,SNB-75,15.8 µM (inactive)
same,GI50,SW-620,20.3 µM (inactive)
same,GI50,SNB-19,17.8 µM (inactive)
same,GI50,K562,34.5 µM (inactive)
same,GI50,RPMI-8226,38.3 µM (inactive)
same,GI50,HL-60,64.1 µM (inactive)
same,GI50,MDA-MB-435,17.9 µM (inactive)
same,GI50,A498,26.3 µM (inactive)
same,GI50,HOP-62,15.6 µM (inactive)
same,GI50,MCF7,19.9 µM (inactive)
same,GI50,SF-539,16.1 µM (inactive)
same,GI50,PC-3,12.4 µM (inactive)
same,GI50,OVCAR-8,17.7 µM (inactive)
same,GI50,SK-MEL-2,16.4 µM (inactive)
same,GI50,NCI-H226,14.4 µM (inactive)
same,GI50,MOLT-4,35.6 µM (inactive)
same,GI50,KM12,15.9 µM (inactive)
same,GI50,RXF 393,22.1 µM (inactive)
same,GI50,SF-268,20.7 µM (inactive)
same,GI50,M14,14.1 µM (inactive)
same,GI50,UACC-62,15.8 µM (inactive)
same,GI50,CAKI-1,22.4 µM (inactive)
same,GI50,CCRF-CEM,53.3 µM (inactive)
same,GI50,SF-295,18.2 µM (inactive)
same,GI50,HCT-15,13.9 µM
same,GI50,BT-549,16.3 µM (inactive)
